{
  "source": "patent US12702715B2",
  "about": "“Targeted RNA degradation allows precision repurposing of protein-targeted small molecule medicines to RNA” (University of Florida Research Foundation, Incorporated, priority 2020, dated 2026)",
  "key": {"pre-miR-21 WT RNA": {"tested_on": "pre-miR-21 WT RNA", "assay": "In vitro Chem-CLIP and C-Chem-CLIP, pre-miR-21 WT", "assay_type": "binding, human", "description": "In Vitro Chemical Cross-linking and Isolation by Pull Down (Chem-CLIP) and Competitive Chem-CLIP (C-Chem-CLIP). Growth medium [RMPI 1640 medium with L-glutamine & 25 mM HEPES (Corning)] was inactivated by heating at 95° C. to for 15 min and slowly cooling to room temperature at benchtop. Pre-miR-21 labeled with ^32P at the 5′-end (~10,000 counts) was folded in growth medium by heating at 95° C. for 1 min and slowly cooling to room temperature. To the samples was added Chem-CLIP probe 4 (1, 5, 20 or 100 μM) or negative control probe 5 (1, 5, 20 or 100 μM), and the mixtures were incubated at 37° C. for 1 h. The samples were then cross-linked by irradiation with 365 nm light for 10 min. The Chem-CLIP probe 4 or control probe 5, whether or not cross-linked to the RNA, was then clicked to disulfide biotin azide (10 mM in DMSO; 10 μL per sample; 1168-10, Click Chemistry Tools) by incubating in a solution containing 1×HEPES buffer (25 mM, pH 7), sodium ascorbate (10 μL/sample, 250 mM in H2O), CuSO4 (10 μL/sample, 50 mM in H2O), THPTA (10 μL/sample, 50 mM in H2O) for 2 h at 37° C. […] The radioactive signal from bound RNAs (on the beads) and unbound RNAs (from the wash steps) were measured by using a Beckman Coulter LS6500 Liquid Scintillation Counter. Enrichment of pre-miR-21 was calculated as previously described^6. […]"}, "PDCD4": {"tested_on": "PDCD4", "assay": "PDCD4 Western blot in MDA-MB-231 cells", "assay_type": "cell-based, human", "description": "Western Blotting. MDA-MB-231 cells were plated in 6-well plates. When they reached ~50% confluency, they were treated with vehicle (DMSO) or 4. After 48 h, the medium was removed, and the cells were washed with 1×DPBS. The cells were harvested by trypsinization, and total protein was extracted with MPER (Mammalian Protein Extraction Reagent, Thermo Scientific) as previously described^6. Protein concentrations were determined by using a Pierce Micro BCA Protein Assay kit (Fisher Scientific). Approximately 10 μg of total protein from each sample obtained above was resolved on a SDS-polyacrylamide gel (10%), and the protein were transferred to a PVDF ([…]) membrane. After blocking the membrane in 1×TBST with 5% (w/v) nonfat milk for 60 min, the membrane was incubated with 1×TBST containing 5% milk and PDCD4 (Cell Signaling Technology, 9535S) primary antibody (1:1000 dilution) at 4° C. overnight. The membrane was washed with 1×TBST for 10 min three times and then incubated with 1:2000 anti-rabbit IgG horseradish-peroxidase secondary antibody conjugate (Cell Signaling Technology, 7074S) in 1× TBST containing 5% (w/v) milk for about 2 h. After washing with 1×TBST for 10 min three times, PDCD4 protein was detected by using SuperSignal West Pico Chemiluminescent Substrate (Pierce Biotechnology). After imaging, the membrane was stripped with 1× Stripping Buffer (200 mM glycine with 0.1% SDS, pH 2.2) for 120 min at RT, and β-actin level was detected as described for PDCD4 except using β-actin (Cell Signaling Technology, 3700S) primary antibody (1:5000 dilution). ImageJ software was used for quantification of the protein bands."}, "PTEN": {"tested_on": "PTEN", "assay": "PTEN luciferase assay", "assay_type": "cell-based, human", "settings": "MDA-MB-231", "description": "PTEN Luciferase Assay. To study de-repression of PTEN, a luciferase-based cellular assay was performed as previously described^6. Briefly, MDA-MB-231 cells (~60% confluency) in 48-well plates were co-transfected with plasmids encoding Renilla luciferase (for normalization) and firefly luciferase fused to the 3′ UTR of PTEN by using Lipofectamine 2000 according to the manufacturer's protocol. After 5 h, the cells were treated with the compounds diluted in growth medium. Luciferase assay were then completed as previously described^4, 9."}, "MCF-10A cells": {"tested_on": "MCF-10A cells", "assay": "Boyden chamber invasion assay, MCF-10A", "assay_type": "cell-based, human", "settings": "for invasion phenotype of MCF-10A acquired by transfection of mutant pre-miR-21: 1 binding site ablated", "description": "Cell Culture. Cells were cultured at 37° C. and 5% CO2. MDA-MB-231 cells (HTB-26, ATCC) were cultured in RMPI 1640 medium with L-glutamine & 25 mM HEPES supplemented with 1× Antibiotic/Antimycotic solution (Corning) and 10% FBS. MCF-10A cells (CRL-10317, ATCC) were cultured in 1×DMEM/F12 50/50 with L-glutamine & 15 mM HEPES (Corning) supplemented with 20% FBS, 1× Antibiotic/Antimycotic solution, 20 ng/mL human epidermal growth factor (Pepro Tech, Inc.), 10 μg/mL insulin (Sigma-Aldrich), and […] hydrocortisone (Pfaltz & Bauer). For compound treatment, compound stocks either in DMSO or water were diluted in growth medium and added to cells for the indicated time. Plasmid DNA to overexpress pre-miR-21 in pcDNA 3.1 (Addgene 21114) or a plasmid DNA encoding the pre-miR-21 mutant (custom purchased from GenScript USA, Inc.) was transfected with jetPRIME per the manufacturer's protocol. After transfection, the medium was replaced with growth medium containing the compound of interest, prepared as described above. The RNase L-targeting siRNA or a control siRNA was transfected with Lipofectamine RNAiMAX reagent (Invitrogen) per the manufacturer's protocol.\nBoyden Chamber Invasion Assay. MDA-MB-231 or MCF-10A cells (5×10^4) in serum free growth medium with or without compound treatment were seeded into hanging cell culture inserts (for 24-well plates) pre-coated with Matrigel. Complete growth medium was added to the bottom well. After 16-24 h, the medium was removed, and the hanging inserts were washed with 1×DPBS twice and then fixed with 4% paraformaldehyde in 1×DPBS at room temperature for 20 min. Then the inserts were washed twice with 1×DPBS and stained with 0.1% (w/v) crystal violet 1×DPBS for 20 min. The inserts were washed twice with nanopure water and once with 1×DPBS. Cells on the surface of the Matrigel (non-invasive) were removed with cotton swabs and invading cells were counted and imaged under a microscope."}},
  "note": "Entries after “also recorded” stand apart in the source; their conditions may differ.",
  "data": [
    {"smiles": "C#CCCC1(CCC(=O)NCCN2CCN(c3ccc4[nH]c(-c5c(N)c6c(F)cccc6[nH]c5=O)nc4c3)CC2)N=N1", "note": "[Compound 4]", "values": [
      {"measurement": "enrichment of 32P-labeled pre-miR-21 WT", "setting": "pre-miR-21 WT RNA; 1, 5, 20 or 100 μM", "value": "dose-dependently enriched"}
    ]},
    {"smiles": "CCOC(=O)C1=C(Nc2ccccc2)S/C(=C\\c2ccc(OCCOCCOCCOCCNC(=O)NCCN3CCN(c4ccc5[nH]c(-c6c(N)c7c(F)cccc7[nH]c6=O)nc5c4)CC3)c(O)c2)C1=O", "note": "[Compound 2, Ribotac-Dovitinib]", "values": [
      {"measurement": "PDCD4 expression", "setting": "PDCD4; MDA-MB-231, 1 and 2 at 1 μM, LNA-21 at 100 nM", "value": "derepressed"},
      {"measurement": "fold more potent downstream effects than 1", "setting": "PDCD4; PTEN, PDCD4, invasion", "value": 10, "unit": "fold"},
      {"measurement": "PTEN expression (luciferase-based assay)", "setting": "PTEN", "value": "derepressed"},
      {"measurement": "invasion phenotype of MCF-10A acquired by transfection of mutant pre-miR-21", "setting": "MCF-10A cells", "value": "had no effect; also recorded: unable to rescue"}
    ]},
    {"smiles": "CN1CCN(c2ccc3nc(-c4c(N)c5c(F)cccc5[nH]c4=O)[nH]c3c2)CC1", "note": "[Compound 1, Dovitinib, reference compound]", "values": [
      {"measurement": "competition of enrichment of pre-miR-21 by 4", "setting": "pre-miR-21 WT RNA; in vitro C-Chem-CLIP", "value": "competed off"},
      {"measurement": "derepression of PDCD4 expression", "setting": "PDCD4; 5 μM", "value": "~ 60%"},
      {"measurement": "PTEN expression (luciferase-based assay)", "setting": "PTEN", "value": "derepressed"},
      {"measurement": "invasion phenotype of MCF-10A acquired by transfection of wild type pre-miR-21", "setting": "MCF-10A cells", "value": "reverted this phenotype; also recorded: inhibited"},
      {"measurement": "invasion phenotype of MCF-10A acquired by transfection of mutant pre-miR-21", "setting": "MCF-10A cells", "value": "insensitive"},
      {"measurement": "invasive nature of MCF-10A cells", "setting": "MCF-10A cells; no overexpression", "value": "had no effect"}
    ]}
  ]
}
